Read-outs that look alike come from different tables or passages of the source.
Assays:
quagga mussels = test: whole plant or invertebrate; conditions: Dreissena rostriformis
[1] = system: Brown garden snails (Cantareus aspersus); test: Snail experiments: chemical-containing corn starch; format: in vivo; conditions: 100 mg/gram corn starch; for Consumed amount of corn starch: after 24 hr
Experimental: An appropriate amount of a testing compound is dissolved in acetone (2 mL) first. The solution was added into 2.5 gram of corn starch and mixed well. The resulting mixture is transferred to a Petri dish (Φ 25 mm). The Petri dish is then put in the hood for natural dry. After drying, water (2 mL) is added into the Petri dish to make paste.
Brown garden snails (Cantareus aspersus) are collected from a house garden and raised at least 1 day in lab with cabbage or red carrot. Five individuals with a similar size are chosen for each treatment and transferred into a 1 L beaker. To make the snail active, some water is sprayed on them and in the beaker by using hand-sprayer. After spraying water, the Petri dish with chemical-containing corn starch is placed into the beaker the beaker is covered on the top with aluminum foil. Eating behavior, consumed amount of corn starch and mortality at 24 hr is recorded.

CL145A (ATCC 55799) = test: Antibiotic resistance profile, discs on Mueller-Hinton Agar; format: cell-based, Pseudomonas protegens strain CL145A; conditions: for CL145A resistant or sensitive to the antibiotic: antibiotic disc, 72 hours incubation; for Suppresses growth of CL145A: disc 10 μg, 25° C., 72 hours
Experimental: One glycerol stock vial of CL145A was equally distributed onto Mueller-Hinton Agar plates (100 μl per plate) and spread on the plate using a sterile cell spreader. Antibiotic discs were then placed onto the plates along with a blank sterile disc. Plates were incubated at 25° C. in the dark for 72 hours.

[2] = 24 h, read-out: Molluscicidal effect (mortality) 24 hr
[3] = 48 h, read-out: Molluscicidal effect (mortality) 48 hr
[4] = 72 h, read-out: Molluscicidal effect (mortality) 72 hr
[5] = 96 h, read-out: Molluscicidal effect (mortality) 96 hr
[6] = 24 h, read-out: Potency toward quagga mussels (mortality) 24 hr
[7] = 48 h, read-out: Potency toward quagga mussels (mortality) 48 hr
[8] = 72 h, read-out: Potency toward quagga mussels (mortality) 72 hr
[9] = 96 h, read-out: Potency toward quagga mussels (mortality) 96 hr

CCCC1CCC(=O)O1 (stereo not shown) [SAR-011]
mortality at 11.1 µg/mL (quagga mussels; [2]): 0% | mortality at 11.1 µg/mL (quagga mussels; [3]): 0% | mortality at 11.1 µg/mL (quagga mussels; [4]): 0% | mortality at 11.1 µg/mL (quagga mussels; [5]): 0%

O=C1CCC(c2ccccc2)O1 (stereo not shown) [SAR-013]
mortality at 11.1 µg/mL (quagga mussels; [2]): 0% | mortality at 11.1 µg/mL (quagga mussels; [3]): 0% | mortality at 11.1 µg/mL (quagga mussels; [4]): 0% | mortality at 11.1 µg/mL (quagga mussels; [5]): 0%

CCCCCCC1CCC(=O)O1 (stereo not shown) [SAR-014]
mortality at 11.1 µg/mL (quagga mussels; [2]): 0% | mortality at 11.1 µg/mL (quagga mussels; [3]): 0% | mortality at 11.1 µg/mL (quagga mussels; [4]): 0% | mortality at 11.1 µg/mL (quagga mussels; [5]): 0% | Effect on brown garden snails [1]: strongly repel brown garden snails | 24 hr mortality ([1]; 24 hr): 0% | Consumed amount of corn starch [1]: 0% after

CCCCCCCCCC(=O)NC1CCCC1 [SAR-020, N-Cyclopentyldecanamide]
mortality at 11.1 µg/mL (quagga mussels; [6]): 75 ± 7% | mortality at 11.1 µg/mL (quagga mussels; [7]): 75 ± 7% | mortality at 11.1 µg/mL (quagga mussels; [8]): 75 ± 7% | mortality at 11.1 µg/mL (quagga mussels; [9]): 75 ± 7%

CCCCCCCCCC(=O)N1CCCCC1 [SAR-021, N-(Decanoyl)piperidine]
mortality at 11.1 µg/mL (quagga mussels; [6]): 55 ± 21% | mortality at 11.1 µg/mL (quagga mussels; [7]): 55 ± 21% | mortality at 11.1 µg/mL (quagga mussels; [8]): 60 ± 14% | mortality at 11.1 µg/mL (quagga mussels; [9]): 65 ± 7%

CCCCCCCCCC(=O)N1CCCCCC1 [SAR-022, N-(Decanoyl)hexamethyleneimine]
mortality at 11.1 µg/mL (quagga mussels; [6]): 35 ± 7% | mortality at 11.1 µg/mL (quagga mussels; [7]): 40 ± 14% | mortality at 11.1 µg/mL (quagga mussels; [8]): 40 ± 14% | mortality at 11.1 µg/mL (quagga mussels; [9]): 45 ± 21%

O=C(/C=C/c1ccccc1)NC1CCCC1 [SAR-023, N-Cyclopentylcinnamamide]
mortality at 11.1 µg/mL (quagga mussels; [6]): 0% | mortality at 11.1 µg/mL (quagga mussels; [7]): 0% | mortality at 11.1 µg/mL (quagga mussels; [8]): 0% | mortality at 11.1 µg/mL (quagga mussels; [9]): 0%

O=C(/C=C/c1ccccc1)N1CCCC1 [SAR-024, N-(trans-Cinnamoyl)pyrrolidine]
mortality at 11.1 µg/mL (quagga mussels; [6]): 0% | mortality at 11.1 µg/mL (quagga mussels; [7]): 0% | mortality at 11.1 µg/mL (quagga mussels; [8]): 0% | mortality at 11.1 µg/mL (quagga mussels; [9]): 0%

O=C(/C=C/c1ccccc1)N1CCCCC1 [SAR-025, N-(trans-Cinnamoyl)piperidine]
mortality at 11.1 µg/mL (quagga mussels; [6]): 0% | mortality at 11.1 µg/mL (quagga mussels; [7]): 0% | mortality at 11.1 µg/mL (quagga mussels; [8]): 0% | mortality at 11.1 µg/mL (quagga mussels; [9]): 0%

O=C(/C=C/c1ccccc1)N1CCCCCC1 [SAR-026, N-(trans-Cinnamoyl) hexamethyleneimine]
mortality at 11.1 µg/mL (quagga mussels; [6]): 0% | mortality at 11.1 µg/mL (quagga mussels; [7]): 0% | mortality at 11.1 µg/mL (quagga mussels; [8]): 0% | mortality at 11.1 µg/mL (quagga mussels; [9]): 0%

CCCCCCC/C=C/C(=O)NC1CCCC1 [SAR-027, N-Cyclopentyldecenamide]
mortality at 11.1 µg/mL (quagga mussels; [6]): 85 ± 7% | mortality at 11.1 µg/mL (quagga mussels; [7]): 95 ± 7% | mortality at 11.1 µg/mL (quagga mussels; [8]): 95 ± 7% | mortality at 11.1 µg/mL (quagga mussels; [9]): 95 ± 7%

CCCCCCCC=CC(=O)N1CCCC1 [SAR-030, N-(Decenoyl)pyrrolidine]
Effect on brown garden snails [1]: kill all brown garden snails after they ate | Consumed amount of corn starch [1]: Less than 5%

[H]/N=C(/N)N[C@H]1[C@H](O)[C@@H](O)[C@H](O[C@@H]2O[C@@H](C)[C@](O)(C=O)[C@H]2O[C@@H]2O[C@@H](CO)[C@H](O)[C@@H](O)[C@@H]2NC)[C@@H](N/C(N)=N\[H])[C@@H]1O [Streptomycin]
CL145A resistant or sensitive to the antibiotic (CL145A (ATCC 55799)): resistant | Suppresses growth of CL145A (CL145A (ATCC 55799)): No

Gentamicin
CL145A resistant or sensitive to the antibiotic (CL145A (ATCC 55799)): sensitive | Suppresses growth of CL145A (CL145A (ATCC 55799)): Yes

Penicillin
CL145A resistant or sensitive to the antibiotic (CL145A (ATCC 55799)): resistant | Suppresses growth of CL145A (CL145A (ATCC 55799)): No

— patent US9414590B2, “Chemical and biological agents for the control of molluscs” (priority 2009, dated 2016)
